Biological target: T1, hCNPY4 (FLAG-tagged human Canopy4) (Homo sapiens, UniProt Q8N129)
T1 sequence (Q8N129 22-248): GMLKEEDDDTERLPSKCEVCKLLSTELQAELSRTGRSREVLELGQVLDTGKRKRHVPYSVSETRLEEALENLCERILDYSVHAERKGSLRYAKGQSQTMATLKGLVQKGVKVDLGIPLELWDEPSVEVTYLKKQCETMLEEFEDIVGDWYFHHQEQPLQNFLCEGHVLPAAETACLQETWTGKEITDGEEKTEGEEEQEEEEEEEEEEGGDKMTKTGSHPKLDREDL
Assay: fluorescence polarization, direct titration
Format: binding

In order of falling Kd:
1. CCCCCCCCCCCCC/C=C/[C@@H](O)[C@H](COP(=O)([O-])OCC[N+](C)(C)C)NC(=O)CCCCCNc1ccc([N+](=O)[O-])c2nonc12 [NBD-sphingomyelin 6:0]  0.28 ± 0.12 µM
2. CCCCCCCCCCCCC/C=C/[C@@H](O)[C@H](COP(=O)(O)O)NC(=O)CCCCCNc1ccc([N+](=O)[O-])c2nonc12 [NBD-ceramide-1-phosphate 6:0]  0.13 ± 0.04 µM
3. CCCCCCCCCCCCC/C=C/[C@@H](O)[C@H](CO)NC(=O)CCCCCNc1ccc([N+](=O)[O-])c2nonc12 [NBD-ceramide 6:0]  0.08 ± 0.025 µM

Reference: doi:10.1101/2025.10.13.682155v1 (biorxiv, 2025)
